Experimental data published in patent US8637269B2, “Method for the detection of melamine” (Bioo Scientific Corporation, priority 2009, dated 2014).

Target: recombinant MDA enzyme (melamine deaminase, Tri A) (Paracidovorax citrulli, UniProt Q9EYU0)
Assay: Enzymatic detection of melamine in microtiter plates (MDA-mediated conversion to ammonia, indophenol colour)
Assay type: biochemical, Pseudomonas sp. strain NRRL B-12227
Conditions: melamine (1000 ppm stock) and MDA enzyme diluted in 0.1 M Na-MOPS pH 7, overnight (about 12 hours), room temperature; salicylate/nitroprusside and NaOH/hypochlorite reagents; FIG. 2
Description: The TriA gene encoding the melamine deaminase enzyme was inserted into the multiple cloning site region of the pET 24b bacterial expression plasmid. This subcloning strategy places the gene under the transcriptional regulation of the T7 RNA polymerase and fuses a His6 peptide tag onto the C-terminus of the protein to facilitate purification. We expressed the protein (MW about 50 kDa) in E. coli strain BL21 (DE3) and obtained significant amounts of soluble protein in the induced bacterial cultures. After disruption the lysed cell extract was passed over a Talon Cobalt column to bind the His6-tagged protein. After washing the column the bound protein was eluted from the column and dialyzed to remove imidazole.
Purified, desalted recombinant MDA enzyme (about 2 mg/ml in 0.1 M Na-MOPS buffer pH 7) and melamine (1000 ppm) were diluted into 0.1 M Na-MOPS buffer (pH 7) and incubated overnight (about 12 hours) at room temperature. Reaction aliquots were removed and tested for the production of ammonia by mixing the samples with salicylate/nitroprusside and NaOH/hypochlorite reagents in 96 well microtiter plates.

Chain of recombinant MDA enzyme (melamine deaminase, Tri A) (Q9EYU0 whole entry): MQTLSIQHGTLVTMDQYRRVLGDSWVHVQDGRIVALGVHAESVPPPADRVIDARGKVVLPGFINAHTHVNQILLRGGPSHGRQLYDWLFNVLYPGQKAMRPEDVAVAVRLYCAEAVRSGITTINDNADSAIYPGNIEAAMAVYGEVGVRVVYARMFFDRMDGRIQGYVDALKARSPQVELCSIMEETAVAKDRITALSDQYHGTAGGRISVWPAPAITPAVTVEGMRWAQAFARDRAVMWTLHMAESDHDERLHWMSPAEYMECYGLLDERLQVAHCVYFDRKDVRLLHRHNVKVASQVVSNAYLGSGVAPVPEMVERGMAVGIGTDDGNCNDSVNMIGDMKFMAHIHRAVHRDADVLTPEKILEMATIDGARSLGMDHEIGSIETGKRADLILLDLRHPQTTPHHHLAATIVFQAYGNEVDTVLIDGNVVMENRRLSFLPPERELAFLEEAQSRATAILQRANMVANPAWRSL

For `Nc1nc(N)nc(N)n1` [melamine], the “color change indicating MDA-mediated conversion of melamine to ammonia” value was “strong color change”.
